Active and inactive are the calls of the source. No cut-off for these calls is given here.
How the values were obtained:
Vibrio harveyi [1] = test: Inhibition of AI-2-mediated quorum sensing system in Vibrio harveyi BB170 assessed as reduction in AI-2 production at 10 ug/ml by bioluminescence method relative to control; conditions: dose 10.0 µg/ml
Escherichia coli [2] = test: Inhibition of biofilm formation in Escherichia coli RP347 at 50 ug/ml by crystal violet staining based microtiter plate method; format: functional, organism-based; conditions: dose 50.0 µg/ml
Escherichia coli [3] = test: Inhibition of biofilm formation in Escherichia coli RP347 at 50 ug/ml by crystal violet staining based microtiter plate method relative to control; format: functional; conditions: for inhibition at 50 µg/mL: Escherichia coli, RP347, dose 50 µg/ml
Pseudomonas aeruginosa [4] = test: Induction of biofilm formation in Pseudomonas aeruginosa PAO1 at 50 ug/ml by crystal violet staining based microtiter plate method relative to control; format: functional; conditions: dose 50.0 µg/ml
Vibrio harveyi [5] = test: Inhibition of AHL-mediated quorum sensing system in Vibrio harveyi BB886 assessed as reduction in luminescence at 10 ug/ml by bioluminescence method relative to control; conditions: dose 10.0 µg/ml
[6] = Inhibition of Escherichia coli RP347 planktonic cell growth at 50 ug/ml by microplate reader analysis relative to control; format: functional; conditions: RP347, dose 50 µg/ml
Pseudomonas aeruginosa [7] = test: Inhibition of biofilm formation in Pseudomonas aeruginosa PAO1 at 50 ug/ml by crystal violet staining based microtiter plate method relative to control; format: functional

Row | inhibition (Vibrio harveyi [1]) | SMILES | inhibition (Escherichia coli [2]) | inhibition at 50 µg/mL (Escherichia coli [3]) | other results
1 | > 80% | COc1ccc(C2=C(C(=O)c3cccc(Br)c3)C(=O)OC2)cc1Br | Active | 81.2% | Activity (Pseudomonas aeruginosa [4]): > 80%
2 |  | COc1ccc(C2=C(C(=O)c3cccc(Br)c3)C(=O)O/C2=C\c2ccc(Cl)cc2)cc1Br |  | 100% | Activity (Pseudomonas aeruginosa [4]): > 75%
3 | 100% | COc1cc(C#CC(=O)c2cccc(Br)c2)ccc1Br | Active |  | 
4 | 99.6% | O=C1O/C(=C\c2ccc(O)c(Br)c2)C(c2ccc(O)c(Br)c2)=C1C(=O)c1ccc(O)cc1 |  |  | inhibition (Vibrio harveyi [5]): 88.7%; inhibition at 50 µg/mL [6]: 33.4%; inhibition at 50 µg/mL (Pseudomonas aeruginosa [7]): 10%
5 |  | O=C1O/C(=C\c2ccc(O)c(Br)c2)C(c2ccc(O)c(Br)c2)=C1C(=O)c1ccc(Br)cc1 |  | 100% | 
6 |  | COc1ccc(/C=C2\OC(=O)C(C(=O)c3ccc(Br)cc3)=C2c2ccc(OC)c(Br)c2)cc1 |  | 100% | inhibition (Vibrio harveyi [5]): 78.1%
7 |  | COc1cc(OC)c(/C=C2\OC(=O)C(C(=O)c3ccc(Br)cc3)=C2c2ccc(OC)c(Br)c2)c(OC)c1 |  | 100% | 
8 |  | COc1ccc(C(=O)C2=C(c3ccc(OC)c(Br)c3)COC2=O)cc1 | Active |  | inhibition at 50 µg/mL [6]: 87.4%
9 |  | COc1cccc(C2=C(C(=O)c3ccc(Br)cc3)C(=O)O/C2=C\c2ccc(OC)c(Br)c2)c1 | Active |  | 
10 | 74.9% | COc1ccc(C(=O)C2=C(c3ccc(OC)c(Br)c3)/C(=C/c3ccc(OC)c(Br)c3)OC2=O)cc1 | Active |  | 
11 |  | COc1ccc(C(=O)C2=C(c3ccc(OC)c(Br)c3)/C(=C/c3ccc(Cl)cc3)OC2=O)cc1 | Active |  | inhibition at 50 µg/mL (Pseudomonas aeruginosa [7]): 10%
12 | > 80% | COc1ccc(C2=C(C(=O)c3ccc(Br)cc3)C(=O)OC2)cc1Br |  | 100% | inhibition (Vibrio harveyi [5]): 72.6%; inhibition at 50 µg/mL (Pseudomonas aeruginosa [7]): 15.3%
13 |  | COc1cc(C#CC(=O)c2ccc(Br)cc2)ccc1Br |  | 75.1% | inhibition (Vibrio harveyi [5]): 80%; inhibition at 50 µg/mL (Pseudomonas aeruginosa [7]): 29%
14 |  | O=C1O/C(=C\c2ccc(O)cc2)C(c2ccc(O)c(Br)c2)=C1C(=O)c1ccc(Br)cc1 |  | 100% | inhibition at 50 µg/mL [6]: 61.9%
15 |  | COc1ccc(C2=C(C(=O)c3ccc(Br)cc3)C(=O)O/C2=C\c2ccc(C(F)(F)F)cc2)cc1Br |  |  | Activity (Pseudomonas aeruginosa [4]): > 75%
16 |  | O=C1O/C(=C\c2ccc(Br)cc2)C(c2ccc(O)c(Br)c2)=C1C(=O)c1ccc(Br)cc1 |  | 100% | inhibition (INH) (Escherichia coli [3]; dose 50 µg/ml): 90%
17 |  | COc1ccc(/C=C2\OC(=O)C(C(=O)c3ccc(Br)cc3)=C2c2ccc(OC)c(Br)c2)cc1Br | Active |  | inhibition (Vibrio harveyi [5]): 76.1%; Activity (Pseudomonas aeruginosa [4]): > 75%
18 |  | O=C1O/C(=C\c2ccc(O)c(Br)c2)C(c2ccc(O)c(Br)c2)=C1C(=O)c1cccc(Br)c1 | Active |  | 
19 | 100% | COc1ccc(C#CC(=O)c2ccc(Br)cc2)cc1 | Active |  | inhibition at 50 µg/mL [6]: 82.6%; inhibition at 50 µg/mL (Pseudomonas aeruginosa [7]): 29%
20 |  | COc1ccc(C2=C(C(=O)c3ccc(Br)cc3)C(=O)O/C2=C\c2ccc(Br)cc2)cc1Br | Active |  | 
21 |  | COc1cccc(C2=C(C(=O)c3ccc(Br)cc3)C(=O)O/C2=C\c2ccc(Br)cc2)c1 | Active |  | 
22 |  | COc1ccc(/C=C2\OC(=O)C(C(=O)c3cccc(Br)c3)=C2c2ccc(OC)c(Br)c2)cc1Br | Active |  | 
23 | 76.1% | COc1ccc(/C=C2\OC(=O)C(C(=O)c3ccc(Br)cc3)=C2c2cccc(OC)c2)cc1 | Active |  | Activity (Pseudomonas aeruginosa [4]): > 75%
24 |  | COc1cccc(C2=C(C(=O)c3ccc(Br)cc3)C(=O)OC2)c1 | Active |  | inhibition at 50 µg/mL [6]: 76.5%; inhibition at 50 µg/mL (Pseudomonas aeruginosa [7]): 22.7%
25 | 100% | COc1ccc(C(=O)C#Cc2ccc(Br)c(OC)c2)cc1 | Active |  | Activity (Pseudomonas aeruginosa [4]): > 80%

Source: ChEMBL document CHEMBL5131415, “Cadiolide analogues and their precursors as new inhibitors of bacterial quorum sensing and biofilm formation” (2022)
